Results on one compound are retold here after patent publication US9604974B2, “Compounds as modulator of JAK-STAT pathway, methods and applications thereof” (UNIVERSITY OF MYSORE, priority 2015, dated 2017).

pIC50: −log10 of the molar value.

In experiment [1] the test system is Hep3B. Briefly: MTT anti-proliferative assay, Hep3B. It is filed as cell-based. As to conditions: Homo sapiens. As to the method:
(§1) The anti-proliferative activity of Formula I compounds are studied on HepG2 cells using MTT assay. Briefly, the cells (2.5×10^4/ml) are incubated in triplicate in a 96-well plate in the presence or absence of different concentrations of compounds in a final volume of 0.2 ml up to 72 hours at 37° C. Thereafter, 20 μl MTT solution (5 mg/ml in PBS) is added to each well. After 2 hours of incubation at 37° C., 0.1 ml lysis buffer (20% SDS, 50% dimethyl-formamide) is added; incubation is continued overnight at 37° C.; and the optical density (OD) at 570 nm is measured by Tecan plate reader.
(§2) Additionally, Compound 1 is tested on a panel of six cell lines including Hep3B, PLC/PRF5, AGS (gastric cancer cell line), DU145 (prostrate cancer cell line), MDA MB231 (breast cancer cell line) and CAL27 (head and neck cancer cell line) cells.
Background: Tetrazolium assays rely on reduction of a dye to a coloured formazan, in cell work by metabolically active cells.

Experiment [2] deals with PLC/PRF5. As to the kind of experiment: MTT anti-proliferative assay, PLC/PRF5. The format is cell-based. As to conditions: Homo sapiens, PLC-PRF-5. How it is done: as §1, §2
The test system of experiment [3] is CAL27 (head and neck cancer cell line). Briefly: MTT anti-proliferative assay, CAL27. Conditions: Homo sapiens, CAL-27. The format is cell-based. As to the method: as §1, §2
The test system of experiment [4] is STAT3. As to the kind of experiment: Immunocytochemistry of STAT3 nuclear translocation. The format is cell-based, human. Conditions: HepG2, 10 μMol/L, about 6 hours. As to the method:
HepG2 cells are plated in chamber slides in DMEM containing 10% FBS and allowed to adhere for about 24 hours. Following treatment with CIMO for about 6 hours, the cells are fixed with cold acetone for about 10 minutes, washed with PBS and blocked with 5% normal goat serum for about 1 hour. The cells are then incubated with rabbit polyclonal anti-human STAT3 Antibody (dilution, 1/100). After overnight incubation, the cells are washed and then incubated with goat anti-rabbit IgG-Alexa 594 ( 1/100) for about 1 hour and counterstained for nuclei with Hoechst (50 ng/ml) for about 5 minutes. Stained cells are mounted with mounting medium (Sigma-Aldrich) and analyzed under a fluorescence microscope (DP 70, Olympus, Tokyo, Japan).

Experiment [5] deals with HepG2 cells. As to the kind of experiment: CXCL12-induced wound migration assay. It is filed as cell-based, human. As to conditions: 5 μM CIMO, presence and absence of CXCL12, versus controls. As to the method:
STAT3 targeted gene products are known to be involved in cancer cell migration. FIG. 5A interprets the movement of cancer cells in the presence and absence of CIMO and C—X—C motif chemokine 12 (CXCL12) protein. CXCL12 is a chemokine which essentially stimulates the swift migration of cancer cells. An IBIDI culture insert (IBIDI GmbH) is developed with two reservoirs separated by a 500 μm thick wall created by a culture insert in a 35 mm petri dish. 70 μl of HepG2 cells (5×10^5 cells/ml) are added into the two reservoirs of the same insert and incubated at about 37° C. After 12 hours, the insert is gently removed by creating a gap of ˜500 μm. The cells are treated with about 5 μM CIMO for about 8 hours before being exposed to about 100 ng/mL CXCL12 for about 24 hours. Width of wound is measured at time zero and 24 hours of incubation with and without CIMO in the absence or presence of CXCL12. Graphs are plotted against the percentage of migration or distance the cells moved before and after treatment, normalized to control.

In experiment [6] the test system is JAK1. Briefly: IL-6 induced JAK1 phosphorylation in Hep3B. Conditions: 10 μMol/L CIMO, IL-6 10 ng/mL. It is filed as cell-based. How it is done:
FIG. 3 depicts comparative study of cell viability between STAT3-siRNA transfected and Compound 1 (CIMO) treated HepG2 cells [A]. Correspondingly, Western Blot analysis is used to assess the levels of phospho-STAT3 and STAT3 in HepG2 cells with siRNA-mediated depletion STAT3 expression and on exposure to 4 μM CIMO. Whole cell extract is prepared and resolved on SDS-PAGE gel, electrotransferred onto nitrocellulose membrane, and probed for phospho-STAT3 and the same blot is stripped and reprobed with STAT3 antibody and Beta actin to verify equal protein loading. [B] showcases the modulation of STAT3 mediated transcription, α2-M promoter activity by Compound 1 (CIMO) in HepG2 cells. [C] depicts the inhibition of IL-6-induced phosphorylation of STAT3, JAK1 and JAK2 by Compound 1 (CIMO). Hep3B cells (5×10^5/mL) are treated with 10 μMol/L CIMO for the indicated times and then stimulated with IL-6 (10 ng/mL) for about 15 minutes. Whole-cell extracts are then prepared, resolved on SDS-PAGE gel, electrotransferred onto nitrocellulose membrane and probed with phospho-STAT3, phospho-JAK1 and phospho-JAK2 antibodies. The same blot is stripped and reprobed with STAT3, JAK1 and JAK2 antibody to verify equal protein loading. [D] and [E], showcases the suppression of STAT3 regulated gene products involved in cell proliferation and survival by Compound 1 (CIMO). […]

Experiment [7] concerns STAT3 mediated transcription (α2-M promoter). As to the kind of experiment: α2-macroglobulin promoter luciferase reporter assay. As to conditions: HepG2, versus DMSO control. It is filed as cell-based, human. As to the method:
Increased STAT3 activity is known to stimulate oncogenicity of hepatocellular carcinoma. Therefore, evaluation of the level of phosphorylated STAT3 (Y705) in HepG2 cells is carried out with siRNA-mediated deletion of STAT3 transcripts and/or exposure to CIMO, using Western Blot analysis. Experiments related to transient-transfection of STAT3 siRNA in HepG2 cells and STAT3 mediated Transcription activity are performed wherein 60-70% confluent of cells in a 6-well plate are transfected using FuGENE6 (Roche Molecular Biochemicals, Indianapolis, USA) transfection reagent. Luciferase assay is performed using Dual Luciferase Assay Kit (Promega Corp, Singapore). Transfections are carried out in triplicate using 1 μg of the appropriate α-2 macroglobulin luciferase reporter plasmid and empty vector per transfection along with 0.2 μg of Renilla expression plasmid as control for transfection efficiency. Luciferase activities are assayed 48 hours after transfection using the dual Luciferase Assay System (Promega Corp, Singapore)
In addition, assessment of STAT3 mediated transcriptional activity using an α2-macroglobulin (α2-M) promoter in HepG2 cells with either siRNA-mediated depletion of STAT3 expression or on exposure to CIMO is carried out as described above (FIG. 3B).
A general note: Reporter assays use an easily measured gene product as a stand-in for the process of interest.

What is called pIC50 is −log10 of the IC50, conventionally taken in molar units. Read a low pIC50 as a high IC50. In the case of `COc1ccc(C2CNC(c3cn(Cc4ccc(-c5ccccc5C#N)cc4)c4ccccc34)OC23CCCCC3)cc1` (stereo not shown) [Compound 1], the negative logarithm of the IC50 (pIC50) in experiment [1] was 4.33; in experiment [2], 4.41; in experiment [3], 4.57. Further, the “STAT3 in the nucleus” value in experiment [4] is on record as “significant decrease”. Also, the “limitation of HepG2 cell migration” value in experiment [5] is on record as approximately 50%. For the same compound, the “IL-6 induced phosphorylation of JAK1” value in experiment [6] is given as “substantially down-regulates”. The α2-M promoter activity result in experiment [7] is “decreased α2-M promoter activity”.
